Test results taken from patent US12060588B2, “Methods of editing DNA methylation” (Whitehead Institute for Biomedical Research, priority 2016, dated 2024).

System: C3H10T1/2 mouse embryonic fibroblast cells
Assay: Fibroblast-to-myoblast conversion assay
Type: cell-based
Excerpt: FIGS. 4A-4H depict targeted demethylation of the MyoD distal enhancer by dCas9-Tet1 to facilitate conversion of fibroblasts to myoblasts. FIG. 4A provides a schematic representation of targeting the MyoD distal enhancer (DE) region in DMR-5 by dCas9-Tet1 (dC-T) with specific gRNAs. […] Cherry positive cells were FACS sorted for RT-qPCR analysis. Bars represent mean±SD of three experimental replicates. FIG. 4C bisulfite sequencing of cells in FIG. 4B. […] Shown is the mean percentage±SD of two biological replicates. […] C3H10T1/2 cells were plated as 1×10^4 cells per well in 6-well plate, and then infected with lentiviruses expressing dC-T and gRNAs targeting DMR-5, or a catalytic dead form of Tet1 (dC-dT) with target gRNAs. 24-hour post infection, cells were treated with vehicle control (HEPES buffer) or 5-Azacytidine (1 uM) for 24-hour, and then harvested after 14 days for immunofluorescence staining. Stained in green for MyoD, magenta for MHC and blue for DAPI. Scale bar: 200 um. FIG. 4F provides quantification of MyoD positive cell ratio 14-day post infection with lentiviruses expressing dC-T alone, dC-T with gRNAs targeting DMR-5, and dC-dT with the target gRNAs. […] FIG. 4H provides quantification of myotube density in MHC positive clusters with more than 2 or 5 nuclei at 14-days after infection. […] Data are quantified from 3-5 representative images for F-H. Bars represent mean±SD.
FIGS. 12A-12J depict targeted demethylation of the MyoD DMR-5 by dCas9-Tet1 and conversion of fibroblasts to myoblasts. […] PAM for each sgRNA is highlighted by a red box. FIG. 12B provides experimental scheme of the fibroblast-to-myoblast conversion assay. Briefly, C3H10T1/2 mouse embryonic fibroblast cells were plated as 1×10^4 cells per well in 6-well plate, and then infected with lentiviruses expressing dCas9-Tet1 and target gRNAs. 24-hour post infection, cells were optionally treated with 5-Azacytidine (1 uM) for 24-hour (labeled in red), and harvested for immunofluorescence staining at different time points (day-14, -16 and -25, labeled in dark blue) with medium change every other day. Scale bar: 100 um. […] Stained in green for MHC, red for MyoD and blue for DAPI. Scale bar: 200 um. FIG. 12D depicts a fraction of mock C3H10T1/2 cells expressing MyoD at different times after 5-Aza treatment. The fraction of cells expressing MyoD increases from around 6% at day 14 to around 13% at day 16 and reached around 20% at day 25. Bars represent mean±SD. FIG. 12E provides number of nuclei in MHC+ cell clusters (grouped as 1-2 and >2 nuclei per MHC+ cluster). […] Bars represent mean±SD. Data was quantified from 3-5 representative images for each group in FIG. 12D and FIG. 12E. […] Bars represent mean±SD of three experimental replicates. FIG. 12G provides representative images for C3H10T1/2 cells 16 days after infection with lentiviruses expressing dC-T and gRNAs targeting DMR-5 (MyoD distal enhancer) in a fibroblast-to-myoblast conversion assay as described in FIG. 12B. […] Stained in magenta for MHC, green for MyoD and blue for DAPI. Scale bar: 200 um. FIG. 12H depicts a fraction of MyoD positive cells 16 days after infection with lentiviruses expressing dC-T alone or with gRNAs targeting DMR-5. FIG. 12I show a number of nuclei in MHC+ cell clusters (grouped as 2-5, 6-10, 11-20 and >20 nuclei per MHC+ cluster) 16 days after infection. […] Data are quantified from 3-5 representative images for FIGS. 12H-12J. Bars represent mean±SD.
We then investigated whether targeted demethylation of DMR-5 would synergize with 5-Aza treatment to induce myotube formation (FIG. 12B). To follow the process of myotube formation after 5-Aza treatment, a time-course experiment was performed. Multi-nucleated myotube (MHC-positive) with heterogeneous sizes began to form 14 days post treatment, and both MyoD-positive cell ratio and myotube density and size then increased up to day-25 (FIGS. 12C-12E). […]

With “dCas9-Tet1: catalytically inactive Cas9 (dCas9) fused through NLS to the Tet1 catalytic domain, SEQ ID NO: 159; lentivirally expressed with gRNAs” the “MyoD expression level (immunofluorescence)” value (with gRNAs targeting DMR-5, 14 days, absence of 5-Aza) was “moderate expression level of MyoD”, the myotube formation (with gRNAs targeting DMR-5, 14 days, absence of 5-Aza treatment) was “not sufficient to induce myotube formation” and the “myotube formation (MHC+ clusters, >2 nuclei per cluster)” value (with gRNAs targeting MyoD DMR-5 plus 5-Aza, 14 days post-treatment, versus dCas9-Tet1 only or dC-dT) was “facilitated the myotube formation”.
